The source made the active and inactive calls. The rule behind the calls is not given here.
Tests used:
Conditions in all cases: time 14.0 day
[1] = target: Lysine-specific demethylase 6B (Mus musculus) (UniProt Q5NCY0); test: Inhibition of JMJD3 expression in Bl6/J female eGFP-expressing mouse Lin-BM cells assessed as H3K27me3 enrichments level at promoters of HNF3-beta at 100 nM incubated for 14 days by ChIP-qPCR method; type: cell-based
[2] = target: Lysine-specific demethylase 6B (Mus musculus) (UniProt Q5NCY0); test: Inhibition of JMJD3 expression in Bl6/J female eGFP-expressing mouse Lin-BM cells assessed as prevention of loss of H3K27me3 chromatin mark at 100 nM incubated for 14 days by immuno-cytochemical analysis; type: cell-based
[3] = target: Lysine-specific demethylase 6B (Mus musculus) (UniProt Q5NCY0); test: Inhibition of JMJD3 expression in Bl6/J female eGFP-expressing mouse Lin-BM cells assessed as H3K27me3 enrichments level at promoters of GATA4 at 100 nM incubated for 14 days by ChIP-qPCR method; type: cell-based
Lin-BM = test: Inhibition of JMJD3 expression in Bl6/J female eGFP-expressing mouse Lin-BM cells at 100 nM incubated for 14 days by immuno-cytochemistry analysis; type: functional, cell-based
[4] = target: Lysine-specific demethylase 6B (Mus musculus) (UniProt Q5NCY0); test: Inhibition of JMJD3 expression in Bl6/J female eGFP-expressing mouse Lin-BM cells assessed as reduction in hepatic differentiation at 100 nM incubated for 14 days by immuno-cytochemistry analysis; type: cell-based
[5] = target: Lysine-specific demethylase 6B (Mus musculus) (UniProt Q5NCY0); test: Inhibition of JMJD3 expression in Bl6/J female eGFP-expressing mouse Lin-BM cells assessed as H3K27me3 enrichments level at promoters of HNF1-alpha at 100 nM incubated for 14 days by ChIP-qPCR method; type: cell-based
[6] = target: Lysine-specific demethylase 6B (Mus musculus) (UniProt Q5NCY0); test: Inhibition of JMJD3 expression in Bl6/J female eGFP-expressing mouse Lin-BM cells assessed as H3K27me3 enrichments level at promoters of HNF3-alpha at 100 nM incubated for 14 days by ChIP-qPCR method; type: cell-based
[7] = target: Lysine-specific demethylase 6B (Mus musculus) (UniProt Q5NCY0); test: Inhibition of JMJD3 expression in Bl6/J female eGFP-expressing mouse Lin-BM cells assessed as H3K27me3 enrichments level at promoters of HNF4-alpha at 100 nM incubated for 14 days by ChIP-qPCR method; type: cell-based
[8] = target: Lysine-specific demethylase 6B (Mus musculus) (UniProt Q5NCY0); test: Inhibition of JMJD3 expression in Bl6/J female eGFP-expressing mouse Lin-BM cells assessed as H3K27me3 enrichments level at promoters of CEBP-alpha at 100 nM incubated for 14 days by ChIP-qPCR method; type: cell-based

Chain of Lysine-specific demethylase 6B (Mus musculus) (Q5NCY0 whole entry): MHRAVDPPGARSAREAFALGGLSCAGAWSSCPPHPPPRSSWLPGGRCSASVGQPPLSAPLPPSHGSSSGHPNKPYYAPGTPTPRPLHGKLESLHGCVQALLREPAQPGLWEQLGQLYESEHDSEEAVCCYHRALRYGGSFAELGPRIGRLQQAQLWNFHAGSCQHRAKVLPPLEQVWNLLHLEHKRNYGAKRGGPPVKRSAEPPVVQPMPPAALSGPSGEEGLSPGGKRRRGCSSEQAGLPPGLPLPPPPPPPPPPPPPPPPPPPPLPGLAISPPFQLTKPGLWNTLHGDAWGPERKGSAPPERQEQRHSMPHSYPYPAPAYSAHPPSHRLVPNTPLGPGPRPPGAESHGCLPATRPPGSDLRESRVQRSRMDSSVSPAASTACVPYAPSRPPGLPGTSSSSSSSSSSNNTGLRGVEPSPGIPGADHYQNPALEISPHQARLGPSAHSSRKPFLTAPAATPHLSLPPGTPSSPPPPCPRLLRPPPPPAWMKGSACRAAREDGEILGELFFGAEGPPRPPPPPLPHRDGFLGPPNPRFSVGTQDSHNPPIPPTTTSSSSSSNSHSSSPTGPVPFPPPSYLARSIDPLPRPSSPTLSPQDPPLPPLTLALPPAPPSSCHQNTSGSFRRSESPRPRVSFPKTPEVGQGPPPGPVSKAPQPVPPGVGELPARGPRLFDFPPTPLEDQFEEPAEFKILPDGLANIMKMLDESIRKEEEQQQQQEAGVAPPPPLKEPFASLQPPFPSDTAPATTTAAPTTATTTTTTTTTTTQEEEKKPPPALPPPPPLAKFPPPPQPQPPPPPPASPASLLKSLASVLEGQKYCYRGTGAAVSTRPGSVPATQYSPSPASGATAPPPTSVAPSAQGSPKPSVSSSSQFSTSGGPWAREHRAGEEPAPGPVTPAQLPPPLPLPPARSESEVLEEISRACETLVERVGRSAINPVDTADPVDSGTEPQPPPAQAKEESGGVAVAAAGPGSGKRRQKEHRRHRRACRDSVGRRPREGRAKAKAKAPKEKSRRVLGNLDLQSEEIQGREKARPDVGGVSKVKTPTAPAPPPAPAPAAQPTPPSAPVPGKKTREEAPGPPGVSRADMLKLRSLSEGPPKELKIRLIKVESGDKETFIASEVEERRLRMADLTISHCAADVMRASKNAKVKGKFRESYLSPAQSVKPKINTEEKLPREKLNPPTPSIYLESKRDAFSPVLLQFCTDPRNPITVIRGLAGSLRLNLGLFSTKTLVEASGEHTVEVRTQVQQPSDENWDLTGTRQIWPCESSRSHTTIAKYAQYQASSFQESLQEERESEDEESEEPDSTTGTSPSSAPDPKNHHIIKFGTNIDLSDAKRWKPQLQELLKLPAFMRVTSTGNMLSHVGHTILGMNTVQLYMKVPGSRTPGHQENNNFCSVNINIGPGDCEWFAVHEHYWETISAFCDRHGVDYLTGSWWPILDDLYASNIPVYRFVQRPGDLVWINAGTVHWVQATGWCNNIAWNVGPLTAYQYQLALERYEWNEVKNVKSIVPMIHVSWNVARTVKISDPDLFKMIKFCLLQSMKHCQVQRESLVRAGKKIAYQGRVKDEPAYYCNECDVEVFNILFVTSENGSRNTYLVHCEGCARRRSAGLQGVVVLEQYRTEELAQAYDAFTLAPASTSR

inhibition [1]: Active
inhibition [2]: Active
inhibition [3]: Active
inhibition [4]: Active
inhibition [5]: Active
inhibition [6]: Active
inhibition [7]: Active
inhibition [8]: Active
Compound: CCOC(=O)CCNc1cc(N2CCc3ccccc3CC2)nc(-c2ccccn2)n1
inhibition (Lin-BM): Active

Reference: ChEMBL document CHEMBL5674872, “JMJD3 aids in reprogramming of bone marrow progenitor cells to hepatic phenotype through epigenetic activation of hepatic transcription factors” (PLoS One, 2017)
